≈ marks a conversion by molar mass, not a printed value.
Assay: physchem

Structure (SMILES)	solubility (pH 7.2, aqueous buffer) [µM]	solubility (water) [µM]
CC[C@H](C)[C@H](NC(=O)[C@H](Cc1ccc(O)cc1)NC(=O)[C@H](CO)NC(=O)[C@H](CC(=O)O)NC(=O)[C@H](CC(N)=O)NC(=O)[C@H](CC(C)C)NC(=O)[C@H](CCC(N)=O)NC(=O)[C@H](CCCCN)NC(=O)[C@@H](NC(=O)[C@@H](NC(=O)[C@H](CCC(=O)O)NC(=O)[C@H](CCC(N)=O)NC(=O)[C@H](CC(C)C)NC(=O)[C@H](CCSC)NC(=O)[C@H](C)NC(=O)[C@H](CCSC)NC(=O)[C@H](CCC(=O)O)NC(=O)[C@H](CC(=O)O)NC(=O)[C@H](CO)NC(=O)[C@H](CC(C)C)NC(=O)[C@H](CC(=O)O)NC(=O)[C@H](CC(C)C)NC(=O)[C@H](CC(C)C)NC(=O)[C@@H](NC(=O)[C@@H](NC(=O)[C@H](CC(N)=O)NC(=O)[C@@H](NC(=O)[C@H](CCCCN)NC(=O)[C@H](CO)NC(=O)[C@@H](NC(=O)[C@H](CCC(=O)O)NC(=O)[C@H](C)NC(=O)[C@H](Cc1ccccc1)NC(=O)[C@H](CC(N)=O)NC(=O)[C@@H]1CCCN1C(=O)CN)[C@@H](C)CC)[C@@H](C)CC)[C@@H](C)O)[C@@H](C)O)C(C)C)C(C)C)C(=O)O [HKU4-HR2P1]	1570 (≈ 6340 µg/mL)	651 (≈ 2630 µg/mL)
CC[C@H](C)[C@H](NC(=O)[C@H](Cc1ccc(O)cc1)NC(=O)[C@H](CO)NC(=O)[C@H](CC(=O)O)NC(=O)[C@H](CC(N)=O)NC(=O)[C@H](CC(C)C)NC(=O)[C@H](CCC(N)=O)NC(=O)[C@H](CCCCN)NC(=O)[C@@H](NC(=O)[C@@H](NC(=O)[C@H](CCC(=O)O)NC(=O)[C@H](CCC(N)=O)NC(=O)[C@H](CC(C)C)NC(=O)[C@H](CCSC)NC(=O)[C@H](C)NC(=O)[C@H](CCSC)NC(=O)[C@H](CCC(=O)O)NC(=O)[C@H](CC(=O)O)NC(=O)[C@H](CO)NC(=O)[C@H](CC(C)C)NC(=O)[C@H](CC(=O)O)NC(=O)[C@H](CC(C)C)NC(=O)[C@H](CC(C)C)NC(=O)[C@@H](NC(=O)[C@@H](NC(=O)[C@H](CC(N)=O)NC(=O)[C@@H](NC(=O)[C@H](CCCCN)NC(=O)[C@H](CO)NC(=O)[C@@H](NC(=O)[C@@H](N)CCC(=O)O)[C@@H](C)CC)[C@@H](C)CC)[C@@H](C)O)[C@@H](C)O)C(C)C)C(C)C)C(=O)N[C@@H](CC(=O)O)C(=O)N[C@@H](CC(C)C)C(=O)N[C@@H](CCCCN)C(=O)N[C@@H](CCC(=O)O)C(=O)N[C@@H](CC(C)C)C(=O)O [HKU4-HR2P2]	2920 (≈ 12100 µg/mL)	150 (≈ 623 µg/mL)
CC[C@H](C)[C@H](NC(=O)[C@H](Cc1ccc(O)cc1)NC(=O)[C@H](CO)NC(=O)[C@H](CC(=O)O)NC(=O)[C@H](CC(N)=O)NC(=O)[C@H](CC(C)C)NC(=O)[C@H](CCC(N)=O)NC(=O)[C@H](CCCCN)NC(=O)[C@@H](NC(=O)[C@@H](NC(=O)[C@H](CCC(=O)O)NC(=O)[C@H](CCC(N)=O)NC(=O)[C@H](CC(C)C)NC(=O)[C@H](CCSC)NC(=O)[C@H](C)NC(=O)[C@H](CCSC)NC(=O)[C@H](CCC(=O)O)NC(=O)[C@H](CC(=O)O)NC(=O)[C@H](CO)NC(=O)[C@H](CC(C)C)NC(=O)[C@H](CC(=O)O)NC(=O)[C@@H](N)CC(C)C)C(C)C)C(C)C)C(=O)N[C@@H](CC(=O)O)C(=O)N[C@@H](CC(C)C)C(=O)N[C@@H](CCCCN)C(=O)N[C@@H](CCC(=O)O)C(=O)N[C@@H](CC(C)C)C(=O)NCC(=O)N[C@@H](CC(N)=O)C(=O)N[C@@H](Cc1ccc(O)cc1)C(=O)N[C@H](C(=O)N[C@@H](Cc1ccc(O)cc1)C(=O)N[C@@H](Cc1ccc(O)cc1)C(=O)N[C@@H](CC(N)=O)C(=O)N[C@@H](CCCCN)C(=O)N[C@@H](Cc1c[nH]c2ccccc12)C(=O)O)[C@@H](C)O [HKU4-HR2P3]	118 (≈ 513 µg/mL)	1670 (≈ 7270 µg/mL)
CC[C@H](C)[C@H](NC(=O)[C@H](Cc1ccc(O)cc1)NC(=O)[C@H](CO)NC(=O)[C@H](CCC(=O)O)NC(=O)[C@H](CC(N)=O)NC(=O)[C@H](CC(C)C)NC(=O)[C@H](C)NC(=O)[C@H](CCCCN)NC(=O)[C@@H](NC(=O)[C@@H](NC(=O)[C@H](CCC(N)=O)NC(=O)[C@H](CCC(N)=O)NC(=O)[C@H](CC(C)C)NC(=O)[C@H](CO)NC(=O)[C@H](CC(C)C)NC(=O)[C@H](CCSC)NC(=O)[C@H](CCC(=O)O)NC(=O)[C@H](Cc1ccc(O)cc1)NC(=O)[C@@H](NC(=O)[C@H](CC(C)C)NC(=O)[C@H](CC(=O)O)NC(=O)[C@H](CC(C)C)NC(=O)[C@H](CC(C)C)NC(=O)[C@@H](NC(=O)[C@@H](NC(=O)[C@H](CC(N)=O)NC(=O)[C@@H](NC(=O)[C@H](CCC(N)=O)NC(=O)[C@@H](NC(=O)[C@H](CC(C)C)NC(=O)[C@@H](N)CO)[C@@H](C)O)[C@@H](C)CC)[C@@H](C)O)[C@@H](C)O)[C@@H](C)O)C(C)C)C(C)C)C(=O)N[C@@H](CC(=O)O)C(=O)N[C@@H](CC(C)C)C(=O)N[C@@H](CCCCN)C(=O)N[C@@H](CCC(=O)O)C(=O)N[C@@H](CC(C)C)C(=O)O [MERS-HR2P, reference compound]	105 (≈ 435 µg/mL)	29 (≈ 120 µg/mL)

From publication PMC6357153 (Viruses, 2019)
